Literature values as cited in patent publication US20090093547A1, “Compositions and Methods for Treating Premature Ejaculation” (Sciele Pharma, Inc., priority 2007, published 2009).
Structures can show the parent of a compound that is named as a salt.

Details: hydrochloride salt crystallized from ethanol and isopropyl ether

CCCNC(C)C(=O)Nc1ccccc1C (stereo not shown) [Prilocalne hydrochloride salt, Prilocalne]
solubility in water: readily soluble
